Conditions: Liquid, Vibrating tube method

CCC[n+]1ccccc1C.O=S(=O)([N-]S(=O)(=O)C(F)(F)F)C(F)(F)F
Conditions	mass density [kg/m3]
283.15 K, 100 kPa	1478.5
283.15 K, 2500 kPa	1480.5
283.15 K, 5000 kPa	1482.1
283.15 K, 7500 kPa	1483.7
283.15 K, 10000 kPa	1485.4
283.15 K, 15000 kPa	1488.6
283.15 K, 20000 kPa	1491.5
283.15 K, 25000 kPa	1494.5
283.15 K, 30000 kPa	1497.3
283.15 K, 35000 kPa	1500.1
283.15 K, 45000 kPa	1505.5
283.15 K, 55000 kPa	1510.5
283.15 K, 65000 kPa	1515.3
288.15 K, 100 kPa	1473.7
288.15 K, 2500 kPa	1475.7
288.15 K, 5000 kPa	1477.3
288.15 K, 7500 kPa	1479
288.15 K, 10000 kPa	1480.6
288.15 K, 15000 kPa	1483.7
288.15 K, 20000 kPa	1486.8
288.15 K, 25000 kPa	1489.9
288.15 K, 30000 kPa	1492.7
288.15 K, 35000 kPa	1495.6
288.15 K, 45000 kPa	1500.9
288.15 K, 55000 kPa	1506
288.15 K, 65000 kPa	1510.9
293.15 K, 100 kPa	1469
293.15 K, 2500 kPa	1470.9
293.15 K, 5000 kPa	1472.6
293.15 K, 7500 kPa	1474.3
293.15 K, 10000 kPa	1475.9
293.15 K, 15000 kPa	1479.2
293.15 K, 20000 kPa	1482.3
293.15 K, 25000 kPa	1485.3
293.15 K, 30000 kPa	1488.3
293.15 K, 35000 kPa	1491.1
293.15 K, 45000 kPa	1496.6
293.15 K, 55000 kPa	1501.8
293.15 K, 65000 kPa	1506.7
298.15 K, 100 kPa	1464.2
298.15 K, 2500 kPa	1466.1
298.15 K, 5000 kPa	1467.8
298.15 K, 7500 kPa	1469.6
298.15 K, 10000 kPa	1471.2
298.15 K, 15000 kPa	1474.5
298.15 K, 20000 kPa	1477.7
298.15 K, 25000 kPa	1480.8
298.15 K, 30000 kPa	1483.8
298.15 K, 35000 kPa	1486.6
298.15 K, 45000 kPa	1492.2
298.15 K, 55000 kPa	1497.4
298.15 K, 65000 kPa	1502.5
303.15 K, 100 kPa	1459.5
303.15 K, 2500 kPa	1461.5
303.15 K, 5000 kPa	1463.2
303.15 K, 7500 kPa	1465
303.15 K, 10000 kPa	1466.6
303.15 K, 15000 kPa	1470
303.15 K, 20000 kPa	1473.2
303.15 K, 25000 kPa	1476.4
303.15 K, 30000 kPa	1479.5
303.15 K, 35000 kPa	1482.4
303.15 K, 45000 kPa	1488
303.15 K, 55000 kPa	1493.3
303.15 K, 65000 kPa	1498.4
308.15 K, 100 kPa	1454.8
308.15 K, 2500 kPa	1456.8
308.15 K, 5000 kPa	1458.5
308.15 K, 7500 kPa	1460.3
308.15 K, 10000 kPa	1462
308.15 K, 15000 kPa	1465.4
308.15 K, 20000 kPa	1468.7
308.15 K, 25000 kPa	1471.9
308.15 K, 30000 kPa	1475
308.15 K, 35000 kPa	1478
308.15 K, 45000 kPa	1483.7
308.15 K, 55000 kPa	1489.1
308.15 K, 65000 kPa	1494.2
313.15 K, 100 kPa	1450
313.15 K, 2500 kPa	1452.1
313.15 K, 5000 kPa	1453.9
313.15 K, 7500 kPa	1455.8
313.15 K, 10000 kPa	1457.5
313.15 K, 15000 kPa	1461
313.15 K, 20000 kPa	1464.3
313.15 K, 25000 kPa	1467.5
313.15 K, 30000 kPa	1470.7
313.15 K, 35000 kPa	1473.7
313.15 K, 45000 kPa	1479.5
313.15 K, 55000 kPa	1485
313.15 K, 65000 kPa	1490.2
318.15 K, 100 kPa	1445.4
318.15 K, 2500 kPa	1447.4
318.15 K, 5000 kPa	1449.3
318.15 K, 7500 kPa	1451.1
318.15 K, 10000 kPa	1452.9
318.15 K, 15000 kPa	1456.4
318.15 K, 20000 kPa	1459.9
318.15 K, 25000 kPa	1463.1
318.15 K, 30000 kPa	1466.4
318.15 K, 35000 kPa	1469.4
318.15 K, 45000 kPa	1475.3
318.15 K, 55000 kPa	1480.8
318.15 K, 65000 kPa	1486.1
323.15 K, 100 kPa	1440.7
323.15 K, 2500 kPa	1442.8
323.15 K, 5000 kPa	1444.7
323.15 K, 7500 kPa	1446.7
323.15 K, 10000 kPa	1448.5
323.15 K, 15000 kPa	1452
323.15 K, 20000 kPa	1455.5
323.15 K, 25000 kPa	1458.7
323.15 K, 30000 kPa	1462
323.15 K, 35000 kPa	1465.2
323.15 K, 45000 kPa	1471.2
323.15 K, 55000 kPa	1476.9
323.15 K, 65000 kPa	1482.1
328.15 K, 100 kPa	1436.1
328.15 K, 2500 kPa	1438.3
328.15 K, 5000 kPa	1440.2
328.15 K, 7500 kPa	1442.1
328.15 K, 10000 kPa	1443.9
328.15 K, 15000 kPa	1447.5
328.15 K, 20000 kPa	1451
328.15 K, 25000 kPa	1454.5
328.15 K, 30000 kPa	1457.8
328.15 K, 35000 kPa	1460.9
328.15 K, 45000 kPa	1467.1
328.15 K, 55000 kPa	1472.7
328.15 K, 65000 kPa	1478.1
333.15 K, 100 kPa	1431.4
333.15 K, 2500 kPa	1433.6
333.15 K, 5000 kPa	1435.5
333.15 K, 7500 kPa	1437.5
333.15 K, 10000 kPa	1439.4
333.15 K, 15000 kPa	1443.1
333.15 K, 20000 kPa	1446.6
333.15 K, 25000 kPa	1450.1
333.15 K, 30000 kPa	1453.4
333.15 K, 35000 kPa	1456.7
333.15 K, 45000 kPa	1462.8
333.15 K, 55000 kPa	1468.6
333.15 K, 65000 kPa	1474.2
